Data from PubChem BioAssay (NCI).
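96-well plates; 48 h exposure; 5 concentrations. Endpoints by linear interpolation between flanking doses. Not reached: highest tested concentration assigned. TGI: total growth inhibition.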

Experiments:
Test in all cases: DTP human tumour cell line panel, 48 h
[1] = test system: NCI-H522 lung
[2] = test system: SF-268 CNS
[3] = test system: SF-295 CNS
[4] = test system: SK-OV-3 ovarian
[5] = test system: SNB-75 CNS
[6] = test system: SR leukemia
[7] = test system: SW-620 colon
[8] = test system: MCF7 breast
[9] = test system: NCI/ADR-RES ovarian
[10] = test system: PC-3 prostate
[11] = test system: T-47D breast

| Structure (SMILES) | TGI [1] | TGI [2] | TGI [3] | TGI [4] | TGI [5] | TGI [6] | TGI [7] | TGI [8] | TGI [9] | TGI [10] | TGI [11] |
| --- | --- | --- | --- | --- | --- | --- | --- | --- | --- | --- | --- |
| O=C1C(Cl)C(c2ccc(Cl)cc2)N1n1cnc2ccccc2c1=O (configuration not stated) | > 100 µM | > 100 µM | > 100 µM | > 100 µM | > 100 µM | > 100 µM | > 100 µM |  |  |  |  |
| COc1ccc(-c2onc(-c3c(C)cc(C)cc3C)c2C2=NCCCN2)cc1 | 35.5 µM | > 100 µM | 56.6 µM | > 100 µM |  | > 100 µM | > 100 µM |  |  |  |  |
| Cc1[nH]n(-c2nc3c(c(=O)[nH]2)CCC3)c(=O)c1CCO | > 100 µM | > 100 µM | > 100 µM | > 100 µM | 46.5 µM |  | > 100 µM | > 100 µM | > 100 µM | > 100 µM | > 100 µM |
| O=c1cc(NCC2CCCCC2)[nH]c(=O)[nH]1 |  | > 100 µM | > 100 µM |  | > 100 µM | > 100 µM | > 100 µM | > 100 µM | > 100 µM | > 100 µM |  |
| Cn1cnc2c(OCC3CCCCC3)nc(N)nc21 | > 100 µM | > 100 µM | > 100 µM | > 100 µM | > 100 µM |  | > 100 µM | > 100 µM | > 100 µM | > 100 µM |  |
| NC(=O)C(=CN1C(=O)CC(=O)NC1=S)C(N)=O |  | > 100 µM | > 100 µM | > 100 µM | > 100 µM |  | > 100 µM | > 100 µM | > 100 µM |  | > 100 µM |
| O=C(O)c1cc(-c2ccccc2O)nc2ccccc12 | > 100 µM | > 100 µM | > 100 µM | > 100 µM | > 100 µM |  | > 100 µM |  |  |  |  |
| O=C1SC(c2ccc(Cl)cc2)(c2ccc(Cl)cc2)c2ccccc21 | > 100 µM | > 100 µM | > 100 µM | > 100 µM | > 100 µM |  | > 100 µM | > 100 µM | > 100 µM | > 100 µM | > 100 µM |
| COC1=CC(C2c3cc4c(cc3[C@@H](Nc3ccc([N+](=O)[O-])cc3)C3COC(=O)[C@H]23)OCO4)=CC(=O)C1=O (some centres not stated) | 13.4 µM | 12.6 µM | 7.47 µM | 6.98 µM | 16 µM |  | > 66.4 µM |  |  |  |  |
| C/C(=N\NS(=O)(=O)c1ccc(C)cc1)C(CN(C)C)C(c1ccccc1)c1c(O)c2ccccc2oc1=O (configuration not stated) | > 100 µM | > 100 µM | > 100 µM | > 100 µM | > 84.7 µM | > 100 µM | > 100 µM | > 100 µM | > 100 µM | > 100 µM |  |
| NC(=O)C12C3C4C1C1C2C3C41C(N)=O (configuration not stated) | > 100 µM | > 100 µM | > 100 µM | > 100 µM | > 100 µM |  | > 100 µM |  |  |  |  |
| CC(=O)c1c(O)ccc2c1CC(CC=O)O2 (configuration not stated) | > 100 µM | > 100 µM | > 100 µM | > 100 µM | > 100 µM | > 100 µM | > 100 µM |  |  |  |  |
| CN(C)CCCSc1c2ccccc2nc2cc(NCC(=O)Nc3ccccc3-c3ccccc3NC(=O)CNc3ccc4c(SCCCN(C)C)c5ccccc5nc4c3)ccc12 | > 100 µM | > 100 µM | > 100 µM | > 100 µM | > 100 µM | > 100 µM | > 100 µM |  |  |  |  |
| Cc1nccc2c1cnc1ccnn12 | > 100 µM | > 100 µM |  | > 100 µM | > 100 µM | > 100 µM | > 100 µM |  |  |  |  |
| COc1ccc(C2CCC(Cl)(OC)CC2C=O)cc1 (configuration not stated) | > 100 µM | 97.3 µM | > 100 µM | > 100 µM | > 100 µM | > 100 µM | > 100 µM |  |  |  |  |
| C[C@H]1C(OCCOC2O[C@@H]3O[C@@]4(C)CC[C@H]5[C@H](C)CCC([C@H]2C)[C@@]35O4)O[C@@H]2O[C@@]3(C)CC[C@H]4[C@H](C)CCC1[C@@]24O3 (some centres not stated) |  | > 100 µM |  | > 100 µM | 81.7 µM | > 100 µM | > 100 µM | > 100 µM | > 100 µM | > 100 µM | 37.5 µM |
| CC(=N/NC(=S)Nc1c(C)n(C)n(-c2ccccc2)c1=O)/C(C)=N\NC(=S)Nc1c(C)n(C)n(-c2ccccc2)c1=O | > 100 µM | > 100 µM | > 100 µM | > 100 µM | > 100 µM | > 100 µM | > 100 µM |  | > 100 µM | > 100 µM | > 100 µM |
| COc1ccc(C2SC(N)=Nc3c2c(C)nn3C(=O)c2ccc(Cl)cc2)cc1 (configuration not stated) | > 10 µM | > 10 µM | > 10 µM | > 10 µM | > 10 µM |  | > 10 µM | > 10 µM | > 10 µM | > 10 µM | > 10 µM |
| COc1ccc(Nc2nc(N)c(C(=O)c3ccc(OC)cc3)s2)cc1 | 0.455 µM | > 100 µM | 40.6 µM | 28.7 µM | 6.26 µM |  | > 37.5 µM | > 100 µM | > 100 µM | 22.1 µM | > 100 µM |
| CCCC(=O)N/S(=N/S(=O)(=O)c1ccc(Cl)cc1)C(Cl)(Cl)Cl (configuration not stated) |  | > 100 µM | > 100 µM | > 100 µM |  | > 100 µM | > 100 µM | > 100 µM | > 100 µM | > 100 µM | > 100 µM |
| OCCSCc1cc2c(O)c(c1)Cc1cc(CSCCO)cc(c1O)Cc1cc(CSCCO)cc(c1O)Cc1cc(CSCCO)cc(c1O)C2 | 14.7 µM | 7.78 µM | 16.7 µM | 31.7 µM |  |  | 15.1 µM | 14.5 µM | 64.2 µM | 8.88 µM | 26.3 µM |
| CCOC(=O)C1=C(O)c2ccccc2C(=O)C1=O | > 100 µM | > 100 µM | > 100 µM | > 100 µM | > 100 µM | > 100 µM | > 100 µM |  |  |  |  |
| Cc1cc(NC(=O)C(=O)Cc2cnc3ccccc3n2)c(S(=O)(=O)O)cc1Cl | > 100 µM | > 100 µM | > 100 µM | > 100 µM | > 100 µM |  | > 100 µM | > 100 µM | > 100 µM | > 100 µM | > 100 µM |
| Cc1cn(CC2=NCC(C)(C)CN2)c(=O)[nH]c1=O | > 100 µM | > 100 µM | > 100 µM | > 100 µM | > 100 µM |  | > 100 µM | > 100 µM | > 100 µM | > 100 µM | > 100 µM |
